The record followed here is a melting point compilation (Tetko et al.; mined from patent text by program, amines drawn as free bases though some values may be those of a salt).

On to `CC(=O)N1CCC2(CC1)Cn1cc([N+](=O)[O-])nc1O2`, for which the melting point (in general, the temperature of the solid-liquid transition) was 232 to 234 °C. The value for `Nc1ccn([C@@H]2O[C@H](CO)[C@@H](O)/C2=C\F)c(=O)n1` was 166 °C; that for `Clc1ccc2c(c1)CNc1ccccc1O2` was 123 to 125 °C; that for `COc1ccc2nc(COc3ccc(CC4SC(=O)NC4=O)cc3)n(C)c2c1` (centres undefined) was 267 to 271 °C.

`CCOC(=O)C(O)(CC(=O)c1ccc(C)c(F)c1)C(=O)OCC`: the melting point fell in the range of 68.7 to 69 °C. On to `COc1c(Br)ccc2oc(CNc3ccc(-c4ccc(S(=O)(=O)NC(C(=O)O)C(C)C)cc4)cc3)c(C)c12` (centres undefined), for which the melting point is 194 to 198 °C. The value for `O=Cc1ccc(OC2CCCC2)c(O)c1Br` was 107 to 109 °C.

The molecule `COc1ccc(CCN(C)C)c2[nH]c(C(F)(F)F)nc12` showed a melting point of 182 to 185 °C. The value for `N#Cc1ccc(-c2ccc(S(=O)(=O)CC(CSc3ccccc3)C(=O)O)cc2)cc1` (centres undefined) was 243 to 247 °C; that for `COC(=O)[C@H](Cc1ccc(N)cc1)NC(C)=O` was 141 °C; that for `Cn1c(C(F)(F)F)cc(=O)n(-c2ccc3snc(C4OCC(O)(CBr)CO4)c3c2)c1=O` (centres undefined) was 105 to 110 °C. With `COc1ccc(Br)cc1S(=O)(=O)NC(C)(C)CO` the figure was 168 °C; with `Oc1c(Br)cc(-c2cccc3sc4ccccc4c23)cc1Br`, 128 to 130 °C; with `CCCCCCc1cc2c(s1)-n1c(C)nnc1CN=C2c1ccccc1C`, 135 to 137 °C. With `CCc1c(C)nc2ccc(Cl)cn2c1=O` the figure was 114 to 116 °C; with `O=C1CCC(c2ccccc2F)c2ccccc2N1` (centres undefined), 210 to 212 °C; with `COc1cccc(C2=C(CC(C)N3CCCCC3)C(=O)N(C)CCC2)c1` (centres undefined), 101 to 103 °C. On to `CCCCc1nc2c(N)nc3ccccc3c2n1CCCCSc1ccc(F)cc1F`, for which the melting point fell in the range of 122 to 126 °C. Molecule `O=C1c2ccccc2C(=O)N1CC(=O)N1c2ccccc2N(Cc2ccccc2)C(=O)[C@H]2CCC[C@H]21` (relative stereo) registered a melting point of 247 to 249 °C. With `COCCOc1ccc(CCC(=O)NS(=O)(=O)CCC(C)C)c(Oc2ncc(C(F)(F)F)cc2Cl)c1` the figure was 130 to 132 °C; with `O=[N+]([O-])c1ccc(Cl)c(CN2CCCCC2)c1Cl`, 67 to 68 °C; with `COC(=S)CCC[C@@H](O)[C@@H](c1ccccc1)c1ccc2ccccc2c1` (relative stereo), 90 °C. The value for `CCN(CC)C(=CC(=O)OC)N1C(=O)C(=[N+]=[N-])c2ccccc21` was 175 to 177 °C; that for `COc1cc2cc(C(=O)N3CC(CCl)c4c3cc([N+](=O)[O-])c3cc(S(=O)(=O)NCCO)ccc43)[nH]c2c(OC)c1OC` (centres undefined) was 257 to 258 °C; that for `CC(C)OC(=O)N1CCC(c2nc3cc(-c4ccc(C(N)=O)c(Cl)c4)ccc3o2)CC1` was 178 to 181 °C.

In turn, `CC(=O)CCc1nc2c(N)nc3ccccc3c2n1CC(C)C` registered a melting point of 172 to 174 °C. In the case of `N#Cc1c(N2CCCCC2)cc(-c2ccc3ccccc3c2)c2c1C(=O)c1ccccc1-2`, the melting point fell in the range of 182 to 184 °C. The value for `Cc1oc(-c2ccccc2)nc1COc1ccc(CON=C(CCCCCCCC(=O)O)c2ccccc2)cc1` was 67 to 68 °C; that for `COc1cc(OCC(=O)O)c(C)cc1SCc1ccc(-c2c(C)cc(C)cc2C)cc1` was 141 °C. In turn, `CN1CCN(C(=NNS(=O)(=O)c2ccccc2)c2ccc(Cl)cc2Cl)CC1` displayed a melting point of 174 to 176 °C. On to `CCN(CC)C(=O)CO/N=C(\C(=O)O)c1csc(N)n1`, for which the melting point stood at 180 °C. The value for `CC(Oc1nn(-c2ccccc2)cc1-c1ccccc1)C(=O)O` (centres undefined) was 175 to 178 °C. The value for `CCCCCCCCCCCCCCCCCC(O)c1ccc(C2=NC(C)(C)CO2)cc1` (centres undefined) was 72 to 75 °C; that for `CCc1cc(C(C)=O)ccc1N=C1SCC2(CCCC2)N1C1CCCC1` was 114 to 115 °C; that for `O=C1Cc2ccccc2C=Cc2cc(Br)ccc21` was 121 to 123 °C.

`N#Cc1ncccc1-c1ccc2c(c1)C1(CCCCC1)C(=O)N2`: the melting point is 232 to 234 °C. With `CN(CCO)Cc1ccc(-c2ccc(N3C[C@H](Cn4ccnn4)OC3=O)cc2F)cn1` the figure was 137 °C; with `N#Cc1cnc2c(c1)N(Cc1cc(F)ccc1F)CCN2`, 204 to 206 °C; with `C[C@@H]1O[C@](/C=C/C2CC2)(C(F)(F)F)c2c(ccc(F)c2F)NC1=O` (relative stereo), 192 to 193 °C. With `O=C1C=C(Nc2cc(F)ccc2F)CCN1` the figure was 252 to 255 °C. With `COC1=C(OC)C(=O)C(CCC(=O)NCC(=O)O)=C(C)C1=O` the figure was 128 to 130 °C; with `CCOC(=O)C(=CC=C(SC)C(=O)c1ccc(Br)cc1)N(C)C`, 107 °C; with `O=S(=O)(NCC(O)(Cn1cncn1)c1ccc(Cl)cc1Cl)c1ccc(Cl)cc1` (centres undefined), 182 to 183 °C.

Turning to `CC1(C)[C@@H](CNc2ccc(C(F)(F)F)cn2)CC[C@@]1(C)NCC(=O)N1C[C@@H](F)C[C@H]1C#N`, the melting point was 52 to 58 °C. The molecule `CN1NC(c2ccccc2Cl)=NN=C1c1ccccc1Cl` gave a melting point of 115 to 116 °C. With `c1cc2c3c(c[nH]c3c1)CC1NCCOC21` (centres undefined) the figure was 175 to 177 °C.

As to `BrCc1cccc2cccc(CBr)c12`, the melting point was in the range of 131 to 132 °C. As to `O=C(O)CSc1ccc(/C=C/C(=O)NCc2cccnc2)cc1`, the melting point lay in the range of 160 to 161 °C. The value for `O=C1Nc2cccnc2N(C(=O)NCCN2CCCCC2CN2CCCC2)c2ccccc21` (centres undefined) was 198 °C; that for `NC(=O)C1CCN(c2ncncc2Cl)CC1` was 201 to 202 °C.

On to `CC1(C)OC(c2ccc(S(N)(=O)=O)cc2)=C(c2ccc3c(c2)OCO3)C1=O`, for which the melting point lay within 178 to 179 °C. As to `COc1ccc(CN2C(=O)C3(COc4cc5c(cc43)OCCO5)c3ccccc32)cc1OC` (centres undefined), the melting point lay within 209 to 211 °C. The molecule `CC(C)(CF)C(O)C(Oc1ccc(Cl)cc1)n1cncn1` (centres undefined) gave a melting point of 103 to 112 °C.

Turning to `COc1ccc(C(=O)Nc2ccccc2)cc1NS(=O)(=O)c1cn(C)cn1`, the melting point lay within 250 to 252 °C. Turning to `Cn1ncc(=O)[nH]c1=O`, the melting point amounted to 118 °C. `CCCCc1nc2c(N)nc3cccnc3c2n1CCN` had a melting point of 175 to 176 °C. On to `COc1ccc(-c2nc(-c3cccs3)c[nH]2)cc1Br`, for which the melting point is 84 to 87 °C.

As for `O=C1NC(=O)c2c1cc(-c1ccccc1)c1[nH]c3ccc(O)cc3c21`, the melting point was in the range of 335 to 345 °C. Molecule `COC(=O)c1ccc(N2C(=O)C(O)=C(C(=O)c3ccc(C)cc3)C2c2ccc(C(C)C)cc2)nc1` (centres undefined) yielded a melting point of 264 to 266 °C.

In turn, `O=C(O)C(=O)c1ccc(OCCCCCCCCCCCCOc2ccccc2)cc1` came in with a melting point of 98 to 100 °C. For the molecule `O=C(O)c1cc(C(=O)O)cc(P(=O)(c2ccccc2)c2ccccc2)c1`, the melting point was 283 to 286 °C. The value for `CCOC(=O)c1oc2ccc([N+](=O)[O-])cc2c1OC(C)C` was 122 °C; that for `Cc1cccc(SC2=C(O)CC(CCc3ccccc3)(c3ccccc3)OC2=O)c1` (centres undefined) was 68 to 70 °C; that for `COC1CN2[C@H]3CC[C@@H]2[C@@H]1[C@@H](c1ccc(Cl)c(Cl)c1)C3` (some centres undefined) was 139 to 141 °C. `CC1(COc2cccc(Br)c2)COC(C)(C)OC1` yielded a melting point of 67 to 70 °C.

The molecule `CCCCCCC(O)CNCCCCCCNCC(O)CCCCCC` (centres undefined) gave a melting point of 124 to 127 °C. For `CC(C)(O)c1ccc(-c2cnc3[nH]c(=O)n(CCC4CCOCC4)c3n2)cc1`, the melting point is 263 to 266 °C. On to `Clc1ccc2c(c1)C(c1ccccc1Cl)NCc1cncnc1-2` (centres undefined), for which the melting point was in the range of 169 to 170 °C.

In the case of `CCOC(=O)C(=Cc1cccn2cc(C(C)(C)C)nc12)N=[N+]=[N-]`, the melting point is 108 to 110 °C. With `O=C(O)c1cn(OCC2CN(Cc3ccccc3)CCN2Cc2ccccc2)c2cc(F)c(F)cc2c1=O` (centres undefined) the figure was 158 to 159 °C. For `O=C(Cl)c1ccc(Cl)cc1Sc1ccccc1`, the melting point lay in the range of 94 to 96 °C.

In turn, `COC(=O)n1nnnc1-c1cnc2ccccn2c1=O` came in with a melting point of 182 to 183 °C. The value for `O=C(NCC12CC3CC(CC(C3)C1)C2)c1cc(-c2ncccc2C(=O)O)ccc1Cl` was 169 to 172 °C.

`CCOC(=O)C(=O)Nc1cc(C(=O)O)ccc1O` yielded a melting point of more than 300 °C. Take `CS(=O)(=O)N1CCC(CO)CC1`: the melting point lay within 96 to 97 °C. The value for `CCCCSc1ccc(C2CC(=O)C(C(=O)CC)=C(O)C2)cc1` (centres undefined) was 79 °C. In turn, `CN1CCN(c2nc3c(cc2F)c(=O)c(C(=O)O)cn3CCF)CC1` displayed a melting point of 224 to 226 °C. `CC(C(=O)O)c1ccc(-n2cc(Cl)cn2)cc1` (centres undefined) gave a melting point of 152 to 153 °C. `Cc1cc2cc(O)ccc2[nH]1`: the melting point lay in the range of 124 to 126 °C. With `Cc1ccc(CC2(O)CCN(CCOC(=O)c3ccc(OCc4ccccc4)cc3)CC2)cc1` the figure was 102 °C; with `COC(=O)C1=C(C)NC(C)=C(C(=O)OC)C1c1cccc(NC(=S)NNC(=O)CN2CCC(c3cccc(OC)c3)CC2)c1`, 113 to 116 °C; with `Cc1nc2ncnn2c2c1CCN2c1c(Cl)cccc1Cl`, 192 to 194 °C.

As to `CCOCc1nc2c(N)nc3ccccc3c2n1CCC1(O)CC1`, the melting point fell in the range of 210 to 211 °C.

`O=C(O)c1ccc(OCCNC(=O)C2Cc3ccccc3N2S(=O)(=O)c2ccc(-c3cc(C(F)(F)F)ccc3Cl)cc2)cc1` (centres undefined) returned a melting point of 117 to 121 °C. The value for `O=C(O)C1CSC(c2ccc(OCCO[N+](=O)[O-])cc2)N1` (centres undefined) was 139 to 141 °C; that for `O=C1NCCc2c(OCC3CO3)cccc21` (centres undefined) was 165 to 166 °C. With `CN1CCN(c2ccc(NC(=O)n3ccc4cc(Oc5cc(CC(N)=O)ncn5)ccc43)cc2C(F)(F)F)CC1` the figure was 238 to 240 °C; with `Cc1cccc(-c2[nH]c(C(C)C)nc2-c2ccc(F)c(-c3ncc[nH]3)c2)n1`, 201 to 205 °C. In turn, `CCOC(=O)N(C)CC(N)=S` registered a melting point of 91 to 93 °C.
